“Also recorded” adds a separate entry of the source. Like-named read-outs stand apart in the source and are kept apart here.
How the values were obtained:
normal rat liver = experiment: Normal rat liver model, intrahepatic injection; type: in vivo; details: for Clinical Signs / Gross Findings (liver lesions) / Survival: 2 rats; for Gross Findings (liver lesions): 2 weeks; for Survival: sacrifice 2 weeks
Method: 54 male Sprague-Dawley rats 250-300 g in body weight were caged in groups of 2 by treatment group, in standard animal housing facilities and given free access to food and water. Prior to surgery, animals received 0.2 ml intramuscular injection of ketamine and xylazine (30 mg/kg and 4 mg/kg respectively). Rats were anesthetized and fixed on a restraining board. The right upper quadrant of the abdomen was shaved and prepped with betadine solution. A lateral incision approximately 1 cm in length was made 2 cm to the right of the abdominal mid-line and 2 cm below the last rib on the right side and the liver exposed. Under direct visual observation, the solution was injected into the liver slowly over a period of about 2 minutes, using a Hamilton microliter syringe (702) equipped with a 27 gauge needle. The needle was withdrawn and the abdominal incision closed using 4-0 plain gut to seal the peritoneum and skin clips to close the skin. Observations of each animal were made hourly for 4 hours during the day of surgery and daily thereafter for two weeks. At two weeks the animals were sacrificed and their livers examined grossly for lesions at the site of injection.

normal feline brain = experiment: Normal feline brain model, direct intra-tissue injection; details: for Gross Findings: lesion size: 2 weeks
Method: Mongrel cats weighing 2.5-3.0 kg were obtained from Liberty Research, Waverly, N.Y. Animals were anaesthetized using intramuscular acepromazine at 0.1 mg/kg, followed by 0-30 mg total dose of ketamine. A small incision was made over and extending posteriorly from the coronal suture. A 3 mm burr hole was made 0.75 cm posterior to the coronal suture and 0.75 cm lateral to the midline. Using a stereotactic frame, solutions were injected at a depth of 0.75 cm in the area of the sensory cortex. The burr hole was closed with bone wax and the skin closed with a skin clip. Doses of carmustine between 5 and 20 mg were administered in dehydrated alcohol volumes of between 0.05-0.4 ml. Two weeks post injection animals were sacrificed, the brain removed in toto and fixed in 10% buffered formalin and the brain examined grossly for lesions at the site of injection. Solutions injected consisted of an ethanol solvent vehicle alone, or containing varying concentrations of carmustine.

Walker 256 tumors = details: for Tumor Free at Time of Death: number of animals
Method: Tumor fragments derived from serially transplanted Walker 256 tumors were prepared and transplanted subcutaneously into female Harlan Sprague Dawley rats. Once the tumors reached appropriate size, animals were randomized into treatment groups of 5 or 6 animals and an untreated control group of 10 animals. Tumor volume for each animal was calculated using the formula: volume=(I×w2)/2. Observations included daily visual observation of each animal's general health, tumor measurements three times per week and weight every week. These measurements continued until: efficacy was apparent, the animal was terminal, the tumor became necrotic, tumor interfered with the animal's ability to eat or drink, or ten weeks beyond commencement of dosing.
Fifty rats bearing tumors ranging from 550 to 1634 mm^3 were randomly divided into eight treatment groups and 2 control groups. The following treatments were respectively administered to the eight treatment groups: […]

[1] = 100 μl ethanol + 1.25 mg carmustine (12.5 mg/ml)
[2] = 100 μl ethanol + 2.5 mg carmustine (25 mg/ml)
[3] = 100 μl ethanol + 5 mg carmustine (50 mg/ml)
[4] = 100 μl ethanol + 10 mg carmustine (100 mg/ml)
[5] = 100 μl ethanol, 12.5-50 mg/ml carmustine
[6] = 0.05 ml ethanol + 5 mg carmustine (100 mg/ml), 1 cat
[7] = 0.05 ml ethanol + 20 mg carmustine (400 mg/ml), 1 cat
[8] = 0.1 ml ethanol + 10 mg carmustine (100 mg/ml), 1 cat
[9] = 0.2 ml ethanol + 5 mg carmustine (25 mg/ml), 1 cat
[10] = 0.4 ml ethanol + 5 mg carmustine (12.5 mg/ml), 1 cat
[11] = Group VI: carmustine 3.3 mg/ml in absolute ethanol, 100% tumor volume

SMILES: O=NN(CCCl)C(=O)NCCCl [Carmustine, carmustine]
- Clinical Signs (normal rat liver; [1]): ANAS
- Gross Findings (liver lesions) (normal rat liver; [1]): no lesion
- Survival (normal rat liver; [1]): term
- Gross Findings (liver lesions) (normal rat liver; [2]): very small lesions
- Survival (normal rat liver; [2]): term
- Gross Findings (liver lesions) (normal rat liver; [3]): small lesions
- Survival (normal rat liver; [3]): term
- Clinical Signs (normal rat liver; [4]): Less active &
- Gross Findings (liver lesions) (normal rat liver; [4]): large areas of tissue destruction; also recorded: fice. Large areas
- Survival (normal rat liver; [4]): term
- Clinical signs at sacrifice (normal rat liver; [5]): appeared normal at sacrifice
- gross examination of the liver (normal rat liver; [5]): no or small lesions
- toxic effects in normal liver tissue (normal rat liver; solutions containing carmustine up to 50 mg/ml): no toxic effects
- Clinical Signs (normal feline brain; [6]): NPND
- Gross Findings: lesion size (normal feline brain; [6]): 2-3 mm
- Survival (normal feline brain; 0.05 ml ethanol + 5 mg carmustine (100 mg/ml), 1 cat, sacrifice 2 weeks): Term
- Clinical Signs (normal feline brain; 0.05 ml ethanol + 10 mg carmustine (200 mg/ml), 1 cat): Circles to left, otherwise
- Survival (normal feline brain; 0.05 ml ethanol + 10 mg carmustine (200 mg/ml), 1 cat, sacrifice 2 weeks): Term
- Clinical Signs (normal feline brain; [7]): Died
- Gross Findings: lesion size (diameter) (normal feline brain; [7]): 1-1.5 cm
- Survival (normal feline brain; [7]): 3 days
- volume of lesion (normal feline brain; 0.05 ml ethanol containing 20 mg (400 mg/ml) carmustine): 1.0 to 1.77 mL
- volume of lesions (normal feline brain; 0.05 ml ethanol containing 10 and 20 mg (200 and 400 mg/ml) carmustine): 1.0 to 1.77 mL
- Clinical Signs (normal feline brain; [8]): NPND
- Gross Findings: lesion size (normal feline brain; [8]): 4-5 mm
- Survival (normal feline brain; 0.1 ml ethanol + 10 mg carmustine (100 mg/ml), 1 cat, sacrifice 2 weeks): Term
- Clinical Signs (normal feline brain; [9]): NPND
- Gross Findings: lesion size (normal feline brain; [9]): 4 mm
- Survival (normal feline brain; 0.2 ml ethanol + 5 mg carmustine (25 mg/ml), 1 cat, sacrifice 2 weeks): Term
- Clinical Signs (normal feline brain; [10]): NPND
- Gross Findings: lesion size (normal feline brain; [10]): 2-3 mm
- Survival (normal feline brain; 0.4 ml ethanol + 5 mg carmustine (12.5 mg/ml), 1 cat, sacrifice 2 weeks): Term
- toxic effects on the tissue (normal feline brain; 0.4 ml ethanol containing 5 mg (12.5 mg/ml) carmustine): no toxic effects
- effect on post-mitotic (non-dividing) cells of normal brain (normal feline brain; 50 μl ethanol, carmustine 200 or 400 mg/ml): destruction of a relatively large volume of tissue; also recorded: novel activity of carmustine against non-dividing cells
- toxic effects in normal brain tissue (normal feline brain; solutions containing carmustine up to 100 mg/ml): no toxic effects
- selective effect on tumor cells (Walker 256 tumors; 100% ethanol and 3.3 mg/ml carmustine): selectively kill tumor cells
- Complete Regressors/Total (Walker 256 tumors; [11]): 4/5
- local findings in the area of the tumor (Walker 256 tumors; [11]): no evidence of scar, hair loss or residual redness
- Mean Days to Tumor Size 5000 mm^3 after treatment (Walker 256 tumors; Group VI: carmustine 3.3 mg/ml in absolute ethanol, 100% tumor volume, 2 animals): 29.5 days
- Tumor Free at Time of Death (Walker 256 tumors; [11]): 3
- Tumor Free at Time of Death (Walker 256 tumors; Group VI: carmustine 3.3 mg/ml in absolute ethanol, 100% tumor volume, listed as carmustine): three

From US6753005B1, “Method for tissue perfusion” (Direct Therapeutics, Inc., priority 1997, dated 2004)
